From ChEMBL document CHEMBL1142248, “Structure-activity relationships and pharmacokinetic parameters of quinoline acylsulfonamides as potent and selective antagonists of the EP(4) receptor” (Bioorg Med Chem Lett, 2008)
Values belong to the compound of their own block, whether it stands above or below them.

Key:
[1] = biological target: T1, Prostaglandin E2 receptor EP1 subtype (Homo sapiens, UniProt P34995); assay: Binding affinity to human EP1 receptor expressed in HEK293 cells; format: cell-based
T1 sequence (P34995 whole entry): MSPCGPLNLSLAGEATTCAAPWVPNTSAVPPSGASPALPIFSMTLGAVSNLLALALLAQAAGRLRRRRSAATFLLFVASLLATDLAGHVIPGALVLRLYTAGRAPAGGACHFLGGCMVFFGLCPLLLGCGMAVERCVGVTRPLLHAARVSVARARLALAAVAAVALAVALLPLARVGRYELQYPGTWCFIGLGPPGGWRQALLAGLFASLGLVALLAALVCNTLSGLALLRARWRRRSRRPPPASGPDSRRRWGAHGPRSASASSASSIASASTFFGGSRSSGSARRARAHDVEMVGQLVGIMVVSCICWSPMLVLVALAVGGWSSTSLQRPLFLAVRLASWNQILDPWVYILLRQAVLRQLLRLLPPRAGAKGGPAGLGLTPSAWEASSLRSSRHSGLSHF

[2] = biological target: Prostaglandin E2 receptor EP2 subtype (Homo sapiens, UniProt P43116); assay: Binding affinity to human EP2 receptor expressed in HEK293 cells; format: cell-based
Chain of Prostaglandin E2 receptor EP2 subtype (P43116 whole entry): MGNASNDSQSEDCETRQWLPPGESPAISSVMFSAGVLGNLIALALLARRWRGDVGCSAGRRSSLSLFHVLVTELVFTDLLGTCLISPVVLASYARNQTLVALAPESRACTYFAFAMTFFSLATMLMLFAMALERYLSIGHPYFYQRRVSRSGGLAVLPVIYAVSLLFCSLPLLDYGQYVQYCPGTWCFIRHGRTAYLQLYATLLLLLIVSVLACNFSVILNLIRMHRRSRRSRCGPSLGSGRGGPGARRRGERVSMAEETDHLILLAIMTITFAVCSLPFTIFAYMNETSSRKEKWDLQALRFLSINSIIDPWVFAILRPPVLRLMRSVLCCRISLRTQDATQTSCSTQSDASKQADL

Rattus norvegicus = species: Rattus norvegicus; assay: Antiinflammatory activity against adjuvant-induced rat arthritis model; format: functional
[3] = biological target: T2, Prostaglandin E2 receptor EP4 subtype (Homo sapiens, UniProt P35408); assay: Binding affinity to human EP4 receptor expressed in HEK293 cells in presence of 10% human serum; format: cell-based
T2 sequence (P35408 whole entry): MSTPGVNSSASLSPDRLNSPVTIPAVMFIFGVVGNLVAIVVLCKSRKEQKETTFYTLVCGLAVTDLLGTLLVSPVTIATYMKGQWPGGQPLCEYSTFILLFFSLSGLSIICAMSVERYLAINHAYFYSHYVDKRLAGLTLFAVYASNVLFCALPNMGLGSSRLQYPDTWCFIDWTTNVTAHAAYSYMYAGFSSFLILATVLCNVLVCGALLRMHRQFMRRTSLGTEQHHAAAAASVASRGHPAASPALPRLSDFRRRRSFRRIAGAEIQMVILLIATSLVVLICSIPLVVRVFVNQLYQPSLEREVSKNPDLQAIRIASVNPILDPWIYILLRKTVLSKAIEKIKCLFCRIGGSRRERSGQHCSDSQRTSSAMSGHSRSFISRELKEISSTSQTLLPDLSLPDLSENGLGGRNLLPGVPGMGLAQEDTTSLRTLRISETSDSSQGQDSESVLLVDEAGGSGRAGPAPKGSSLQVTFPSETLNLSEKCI

[4] = biological target: T2, Prostaglandin E2 receptor EP4 subtype; assay: Binding affinity to human EP4 receptor expressed in HEK293 cells; format: cell-based
[5] = biological target: Prostaglandin F2-alpha receptor (Homo sapiens, UniProt P43088); assay: Binding affinity to human FP receptor expressed in HEK293 cells; format: cell-based
Chain of Prostaglandin F2-alpha receptor (P43088 whole entry): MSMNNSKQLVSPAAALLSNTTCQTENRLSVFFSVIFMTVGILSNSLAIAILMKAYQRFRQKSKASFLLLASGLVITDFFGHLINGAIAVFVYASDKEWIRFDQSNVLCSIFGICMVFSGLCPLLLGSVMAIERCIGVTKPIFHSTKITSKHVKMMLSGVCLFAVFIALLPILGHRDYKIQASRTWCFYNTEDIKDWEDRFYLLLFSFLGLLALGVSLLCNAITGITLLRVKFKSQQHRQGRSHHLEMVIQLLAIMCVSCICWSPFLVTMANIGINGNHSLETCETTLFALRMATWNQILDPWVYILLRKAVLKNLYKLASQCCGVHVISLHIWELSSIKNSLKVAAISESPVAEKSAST

[6] = biological target: T3, Prostaglandin E2 receptor EP3 subtype (Homo sapiens, UniProt P43115); assay: Binding affinity to human EP3 receptor expressed in HEK293 cells; format: cell-based
T3 sequence (P43115 whole entry): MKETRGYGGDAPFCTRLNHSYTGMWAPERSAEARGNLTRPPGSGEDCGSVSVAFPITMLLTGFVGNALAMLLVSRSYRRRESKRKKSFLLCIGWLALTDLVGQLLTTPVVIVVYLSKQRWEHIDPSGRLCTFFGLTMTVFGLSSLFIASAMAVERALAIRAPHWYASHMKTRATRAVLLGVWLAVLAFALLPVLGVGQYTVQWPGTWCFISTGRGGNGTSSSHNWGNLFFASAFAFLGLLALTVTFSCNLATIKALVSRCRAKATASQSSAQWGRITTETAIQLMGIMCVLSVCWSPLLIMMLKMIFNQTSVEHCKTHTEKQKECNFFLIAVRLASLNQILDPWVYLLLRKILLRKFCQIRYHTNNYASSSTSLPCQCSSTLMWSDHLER

[7] = biological target: T4, Prostaglandin D2 receptor (Homo sapiens, UniProt Q13258); assay: Binding affinity to human DP receptor expressed in HEK293 cells; format: cell-based
T4 sequence (Q13258 whole entry): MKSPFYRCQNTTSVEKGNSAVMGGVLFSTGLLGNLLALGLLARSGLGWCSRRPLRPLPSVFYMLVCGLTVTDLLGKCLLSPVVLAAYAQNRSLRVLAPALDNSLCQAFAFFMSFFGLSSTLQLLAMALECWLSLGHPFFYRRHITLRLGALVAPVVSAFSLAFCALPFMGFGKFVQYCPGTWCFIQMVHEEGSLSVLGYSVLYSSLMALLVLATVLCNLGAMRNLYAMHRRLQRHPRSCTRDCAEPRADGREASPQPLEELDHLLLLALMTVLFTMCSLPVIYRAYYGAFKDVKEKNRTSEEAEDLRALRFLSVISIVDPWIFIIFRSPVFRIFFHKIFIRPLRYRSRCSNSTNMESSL

Thromboxane A2 receptor = biological target: T5, Thromboxane A2 receptor (Homo sapiens, UniProt P21731); assay: Binding affinity to human TP receptor expressed in HEK293 cells; format: cell-based
T5 sequence (P21731 whole entry): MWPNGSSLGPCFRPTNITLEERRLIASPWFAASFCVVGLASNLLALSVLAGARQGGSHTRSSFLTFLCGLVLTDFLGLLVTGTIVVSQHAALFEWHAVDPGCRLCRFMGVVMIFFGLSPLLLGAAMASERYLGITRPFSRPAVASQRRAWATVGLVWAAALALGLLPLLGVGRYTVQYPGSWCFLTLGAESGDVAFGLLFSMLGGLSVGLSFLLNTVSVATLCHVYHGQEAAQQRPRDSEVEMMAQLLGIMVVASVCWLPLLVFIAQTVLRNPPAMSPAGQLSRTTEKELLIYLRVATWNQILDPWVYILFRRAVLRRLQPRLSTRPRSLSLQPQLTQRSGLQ

Prostacyclin receptor = Prostacyclin receptor (Homo sapiens, UniProt P43119); assay: Binding affinity to human IP receptor expressed in HEK293 cells; format: cell-based
Chain of Prostacyclin receptor (P43119 whole entry): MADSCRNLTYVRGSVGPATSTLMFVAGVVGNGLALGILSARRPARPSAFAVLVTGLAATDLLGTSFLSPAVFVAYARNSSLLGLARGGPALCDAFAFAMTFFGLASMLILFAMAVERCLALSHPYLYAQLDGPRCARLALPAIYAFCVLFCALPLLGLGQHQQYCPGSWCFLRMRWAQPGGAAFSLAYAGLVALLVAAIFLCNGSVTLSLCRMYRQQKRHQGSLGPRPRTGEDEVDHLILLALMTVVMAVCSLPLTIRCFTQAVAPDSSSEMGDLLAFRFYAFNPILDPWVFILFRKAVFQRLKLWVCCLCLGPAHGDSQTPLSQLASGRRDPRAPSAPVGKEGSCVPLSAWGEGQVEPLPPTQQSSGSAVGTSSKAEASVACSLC

[8] = Volume of distribution at steady state in rat at 20 mg/kg, po or 5 mg/kg, iv; format: ADME, organism-based; conditions: in vivo, read-out: Vdss
[9] = Bioavailability in rat at 20 mg/kg, po or 5 mg/kg, iv; format: ADME, organism-based; conditions: in vivo
[10] = Clearance in rat at 20 mg/kg, po or 5 mg/kg, iv; format: ADME, organism-based; conditions: in vivo
[11] = Half life in rat at 5 mg/kg, iv; format: ADME, organism-based; design: dose 5 mg/kg, route intravenous; conditions: in vivo
[12] = Clearance in guinea pig at 20 mg/kg, po or 5 mg/kg, iv; format: ADME, organism-based, Cavia porcellus; conditions: in vivo
[13] = Half life in dog at 2 mg/kg, iv; format: ADME, organism-based, Canis lupus familiaris; design: dose 2 mg/kg, route intravenous; conditions: in vivo
[14] = Bioavailability in dog at 10 mg/kg, po or 2 mg/kg, iv; format: ADME, organism-based, Canis lupus familiaris; conditions: in vivo
[15] = Volume of distribution at steady state in guinea pig at 20 mg/kg, po or 5 mg/kg, iv; format: ADME, organism-based, Cavia porcellus; conditions: in vivo, read-out: Vdss
[16] = Clearance in dog at 10 mg/kg, po or 2 mg/kg, iv; format: ADME, organism-based, Canis lupus familiaris; conditions: in vivo
[17] = Bioavailability in guinea pig at 20 mg/kg, po or 5 mg/kg, iv; format: ADME, organism-based, Cavia porcellus; conditions: in vivo
[18] = Volume of distribution at steady state in dog at 10 mg/kg, po or 2 mg/kg, iv; format: ADME, organism-based, Canis lupus familiaris; conditions: in vivo, read-out: Vdss
[19] = Half life in guinea pig at 5 mg/kg, iv; format: ADME, organism-based, Cavia porcellus; design: dose 5 mg/kg, route intravenous; conditions: in vivo
[20] = Half life in dog at 5 mg/kg, iv; format: ADME, organism-based, Canis lupus familiaris; design: dose 5 mg/kg, route intravenous; conditions: in vivo
[21] = Half life in mouse at 10 mg/kg, iv; format: ADME, organism-based; design: dose 10 mg/kg, route intravenous; conditions: in vivo
[22] = Half life in rat at 10 mg/kg, iv; format: ADME, organism-based; design: dose 10 mg/kg, route intravenous; conditions: in vivo
[23] = Clearance in mouse at 100 mg/kg, po or 10 mg/kg, iv; format: ADME, organism-based; conditions: in vivo
[24] = Volume of distribution at steady state in rhesus monkey at 4 mg/kg, po or 2 mg/kg, iv; format: ADME, organism-based, Macaca mulatta; conditions: in vivo, read-out: Vdss
[25] = Clearance in dog at 4 mg/kg, po or 5 mg/kg, iv; format: ADME, organism-based, Canis lupus familiaris; conditions: in vivo
[26] = Metabolic stability in human hepatocytes at 20 uM after 2 hrs; format: ADME, cell-based, Hepatocyte; conditions: read-out: Stability
[27] = Volume of distribution at steady state in rat at 20 mg/kg, po or 10 mg/kg, iv; format: ADME, organism-based; conditions: in vivo, read-out: Vdss
[28] = Bioavailability in rhesus monkey at 4 mg/kg, po or 2 mg/kg, iv; format: ADME, organism-based, Macaca mulatta; conditions: in vivo
[29] = Metabolic stability in dog hepatocytes at 20 uM after 2 hrs; format: ADME, cell-based, Canis lupus familiaris, Hepatocyte; conditions: read-out: Stability
[30] = Bioavailability in rat at 20 mg/kg, po or 10 mg/kg, iv; format: ADME, organism-based; conditions: in vivo
[31] = Metabolic stability in rat hepatocytes at 20 uM after 2 hrs; format: ADME, cell-based, Hepatocyte; conditions: read-out: Stability
[32] = Clearance in rhesus monkey at 4 mg/kg, po or 2 mg/kg, iv; format: ADME, organism-based, Macaca mulatta; conditions: in vivo
[33] = Metabolic stability in rhesus monkey hepatocytes at 20 uM after 2 hrs; format: ADME, cell-based, Macaca mulatta, Hepatocyte; conditions: read-out: Stability
[34] = Volume of distribution at steady state in mouse at 100 mg/kg, po or 10 mg/kg, iv; format: ADME, organism-based; conditions: in vivo, read-out: Vdss
[35] = Bioavailability in dog at 4 mg/kg, po or 5 mg/kg, iv; format: ADME, organism-based, Canis lupus familiaris; conditions: in vivo
[36] = Half life in rhesus monkey at 2 mg/kg, iv; format: ADME, organism-based, Macaca mulatta; design: dose 2 mg/kg, route intravenous; conditions: in vivo
[37] = Volume of distribution at steady state in dog at 4 mg/kg, po or 5 mg/kg, iv; format: ADME, organism-based, Canis lupus familiaris; conditions: in vivo, read-out: Vdss
[38] = Bioavailability in mouse at 100 mg/kg, po or 10 mg/kg, iv; format: ADME, organism-based; conditions: in vivo
[39] = Clearance in rat at 20 mg/kg, po or 10 mg/kg, iv; format: ADME, organism-based; conditions: in vivo

Ki [1]: > 9 µM
Ki [2]: 0.3 µM
Ki [3]: 0.0016 µM
Ki [4]: 0.00079 µM
Ki [5]: 0.34 µM
Ki [6]: 2.7 µM
Ki [7]: 0.053 µM
Ki (Thromboxane A2 receptor): 0.039 µM
Ki (Prostacyclin receptor): 2 µM
SMILES: COc1cccc(OC)c1C1(C(=O)NS(=O)(=O)Cc2ccc(N3Cc4c(c(OCC(F)(F)F)c5cccnc5c4OCC(F)(F)F)C3=O)c(C)c2)CC1
ED50 (Rattus norvegicus): 5 µg/kg

Vd [8]: 1.6 L/kg
bioavailability [9]: > 99%
clearance [10]: 0.468 L/h/kg
half-life [11]: 2.7 h
clearance [12]: 0.216 L/h/kg
half-life [13]: 4.1 h
bioavailability [14]: 49%
Vd [15]: 0.6 L/kg
clearance [16]: 0.024 L/h/kg
bioavailability [17]: 18%
Vd [18]: 0.1 L/kg
half-life [19]: 8.6 h
SMILES: CCOc1c2c(c(OCC)c3ncccc13)CN(c1ccc(CS(=O)(=O)[N-]C(=O)Cc3ccccc3OC)cc1C)C2=O.[Na+]

Ki [1]: > 7 µM
Ki [2]: 1.9 µM
Ki [3]: 0.0036 µM
Ki [4]: 0.00074 µM
Ki [5]: 2 µM
Ki [6]: 4 µM
Ki [7]: 1.2 µM
Ki (Thromboxane A2 receptor): 0.63 µM
Ki (Prostacyclin receptor): > 7 µM
SMILES: CCOc1c2c(c(OCC)c3ncccc13)CN(c1ccc(CS(=O)(=O)NC(=O)Cc3ccccc3OC)cc1C)C2=O

half-life [20]: 13.2 h
half-life [21]: 3.5 h
half-life [22]: 14.8 h
clearance [23]: 0.156 L/h/kg
Vd [24]: 0.3 L/kg
clearance [25]: 0.012 L/h/kg
remaining at 2 h, 20 µM [26]: 36%
Vd [27]: 0.7 L/kg
bioavailability [28]: 40%
remaining at 2 h, 20 µM [29]: 20%
bioavailability [30]: 73%
remaining at 2 h, 20 µM [31]: 6%
clearance [32]: 0.12 L/h/kg
remaining at 2 h, 20 µM [33]: 39%
Vd [34]: 0.7 L/kg
bioavailability [35]: 69%
half-life [36]: 3.8 h
Vd [37]: 0.2 L/kg
bioavailability [38]: 44%
clearance [39]: 0.036 L/h/kg
SMILES: COc1cccc(OC)c1C1(C(=O)[N-]S(=O)(=O)Cc2ccc(N3Cc4c(c(OCC(F)(F)F)c5cccnc5c4OCC(F)(F)F)C3=O)c(C)c2)CC1.[Na+]
